In PubChem BioAssay AID256 (DTP/NCI, 2004):
Values joined by “and” are separate entries in the source; they are usually repeats but may differ in a detail not shown here. Equal values may be shown once. Toxic doses and inconclusive results are not listed. The calls were made as follows: active = survival T/C of 150% or more; inactive = T/C below 125% in these data.

Test system: CD2F1 mice, L1210 leukemia ip, survival T/C
Test: NCI In Vivo Anticancer Drug Screen. Data for tumor model L1210 Leukemia (intraperitoneal) in CD2F1 (CDF1) mice
Conditions: higher = longer survival
Method in brief: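 Ratio T/C, where T is the treated-group value and C the vehicle-dosed control value, from mice implanted with a transplantable tumor.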

[1] = endpoint: mean survival time, dose: 12.5 mg/kg/injection, schedule: Q01DX009 (ip), vehicle: saline with Tween-80
[2] = endpoint: mean survival time, dose: 25.0 mg/kg/injection, schedule: Q01DX009 (ip), vehicle: saline with Tween-80
[3] = endpoint: mean survival time, dose: 50.0 mg/kg/injection, schedule: Q01DX009 (ip), vehicle: saline with Tween-80
[4] = endpoint: mean survival time, dose: 100.0 mg/kg/injection, schedule: Q01DX009 (ip), vehicle: saline with Tween-80
[5] = endpoint: mean survival time, dose: 200.0 mg/kg/injection, schedule: Q01DX009 (ip), vehicle: saline with Tween-80
[6] = endpoint: mean survival time, dose: 400.0 mg/kg/injection, schedule: Q01DX009 (ip), vehicle: saline with Tween-80
[7] = endpoint: mean survival time, dose: 100.0 mg/kg/injection, schedule: Q01DX001 (ip), vehicle: saline
[8] = endpoint: mean survival time, dose: 100.0 mg/kg/injection, schedule: Q04DX003 (ip), vehicle: Klucel (hydroxypropylcellulose) (HPC)
[9] = endpoint: mean survival time, dose: 200.0 mg/kg/injection, schedule: Q04DX003 (ip), vehicle: Klucel (hydroxypropylcellulose) (HPC)
[10] = endpoint: mean survival time, dose: 100.0 mg/kg/injection, schedule: Q04DX002 (ip), vehicle: saline with Tween-80
[11] = endpoint: mean survival time, dose: 200.0 mg/kg/injection, schedule: Q04DX002 (ip), vehicle: saline with Tween-80
[12] = endpoint: mean survival time, dose: 400.0 mg/kg/injection, schedule: Q04DX002 (ip), vehicle: saline with Tween-80

Measured: T/C

CC(=O)NC1=CC(=Nc2ccc(N(C)C)cc2)C=CC1=O
inactive: endpoint: mean survival time, dose: 1.25 mg/kg/injection, schedule: Q01DX009 (ip), vehicle: suspension in saline 95 % of control and 97 % of control | endpoint: mean survival time, dose: 2.5 mg/kg/injection, schedule: Q01DX009 (ip), vehicle: suspension in saline 95 % of control and 103 % of control | endpoint: mean survival time, dose: 5.0 mg/kg/injection, schedule: Q01DX009 (ip), vehicle: suspension in saline 97 % of control and 101 % of control | endpoint: mean survival time, dose: 10.0 mg/kg/injection, schedule: Q01DX009 (ip), vehicle: suspension in saline 90 % of control and 97 % of control

COc1cc(OC)c(NC(=O)Nc2cc(C)on2)cc1Cl
inactive: [1] 98 % of control | [2] 92 % of control | [3] 95 % of control

CC(COCc1ccccc1)COP(N)(=O)N(CCCl)CCCl (stereo unspecified)
inactive: endpoint: mean survival time, dose: 15.62 mg/kg/injection, schedule: Q01DX001 (ip), vehicle: DMSO 97 % of control | endpoint: mean survival time, dose: 31.3 mg/kg/injection, schedule: Q01DX001 (ip), vehicle: DMSO 98 % of control | endpoint: mean survival time, dose: 62.5 mg/kg/injection, schedule: Q01DX001 (ip), vehicle: DMSO 101 % of control | endpoint: mean survival time, dose: 125.0 mg/kg/injection, schedule: Q01DX001 (ip), vehicle: DMSO 111 % of control | endpoint: mean survival time, dose: 250.0 mg/kg/injection, schedule: Q01DX001 (ip), vehicle: DMSO 103 % of control | endpoint: mean survival time, dose: 500.0 mg/kg/injection, schedule: Q01DX001 (ip), vehicle: DMSO 101 % of control

NC(=S)N/N=C\c1ncccc1OCc1cccc(N)c1
inactive: endpoint: mean survival time, dose: 12.5 mg/kg/injection, schedule: Q01DX009 (ip), vehicle: distilled water + Tween-80 104 % of control | [1] 100 % of control | endpoint: mean survival time, dose: 25.0 mg/kg/injection, schedule: Q01DX009 (ip), vehicle: distilled water + Tween-80 113 % of control and 104 % of control | [2] 116 % of control and 100 % of control and 107 % of control | endpoint: mean survival time, dose: 50.0 mg/kg/injection, schedule: Q01DX009 (ip), vehicle: distilled water + Tween-80 119 % of control and 111 % of control | [3] 101 % of control and 103 % of control and 110 % of control | endpoint: mean survival time, dose: 100.0 mg/kg/injection, schedule: Q01DX009 (ip), vehicle: distilled water + Tween-80 113 % of control and 119 % of control | [4] 117 % of control and 100 % of control and 105 % of control | endpoint: mean survival time, dose: 200.0 mg/kg/injection, schedule: Q01DX009 (ip), vehicle: distilled water + Tween-80 122 % of control | [5] 114 % of control and 117 % of control and 108 % of control | endpoint: mean survival time, dose: 400.0 mg/kg/injection, schedule: Q01DX009 (ip), vehicle: distilled water + Tween-80 117 % of control | [6] 115 % of control and 108 % of control | endpoint: median survival time, dose: 50.0 mg/kg/injection, schedule: Q01DX009 (ip), vehicle: distilled water + Tween-80 109 % of control | endpoint: median survival time, dose: 100.0 mg/kg/injection, schedule: Q01DX009 (ip), vehicle: distilled water + Tween-80 115 % of control | endpoint: median survival time, dose: 200.0 mg/kg/injection, schedule: Q01DX009 (ip), vehicle: distilled water + Tween-80 118 % of control | endpoint: median survival time, dose: 400.0 mg/kg/injection, schedule: Q01DX009 (ip), vehicle: distilled water + Tween-80 124 % of control

C=C(C)CN=C=S
inactive: endpoint: mean survival time, dose: 100.0 mg/kg/injection, schedule: Q04DX003 (ip), vehicle: saline with Tween-80 98 % of control

O[C@@H](c1ccccc1)[C@@H](c1ccccc1)N1CCCCC1
inactive: endpoint: mean survival time, dose: 50.0 mg/kg/injection, schedule: Q04DX003 (ip), vehicle: saline 103 % of control | [7] 96 % of control | endpoint: mean survival time, dose: 100.0 mg/kg/injection, schedule: Q04DX003 (ip), vehicle: saline 108 % of control | endpoint: mean survival time, dose: 200.0 mg/kg/injection, schedule: Q01DX001 (ip), vehicle: saline 104 % of control | endpoint: mean survival time, dose: 200.0 mg/kg/injection, schedule: Q04DX003 (ip), vehicle: saline 98 % of control

c1ccc2c(c1)[nH]c1ccncc12
inactive: [2] 98 % of control | [3] 90 % of control | [4] 87 % of control

ClC1CCC(Cl)C2CCC3C(Cl)CCC1[S+]23 (stereo unspecified)
inactive: endpoint: mean survival time, dose: 3.12 mg/kg/injection, schedule: Q01DX009 (ip), vehicle: Klucel (hydroxypropylcellulose) (HPC) 104 % of control | endpoint: mean survival time, dose: 6.25 mg/kg/injection, schedule: Q01DX009 (ip), vehicle: Klucel (hydroxypropylcellulose) (HPC) 97 % of control | endpoint: mean survival time, dose: 12.5 mg/kg/injection, schedule: Q01DX009 (ip), vehicle: Klucel (hydroxypropylcellulose) (HPC) 95 % of control

CC[n+]1ccc(Cc2ccc([N+](=O)[O-])cc2)cc1
inactive: [8] 105 % of control

Cc1ccc(C#N)cn1
inactive: [4] 101 % of control | endpoint: mean survival time, dose: 100.0 mg/kg/injection, schedule: Q04DX003 (ip), vehicle: saline sonified 96 % of control | [5] 97 % of control | endpoint: mean survival time, dose: 200.0 mg/kg/injection, schedule: Q04DX003 (ip), vehicle: saline sonified 96 % of control | [6] 90 % of control | endpoint: mean survival time, dose: 400.0 mg/kg/injection, schedule: Q04DX003 (ip), vehicle: saline sonified 89 % of control

C(=N\Nc1nc2ccccc2s1)/c1ccncc1
inactive: [8] 90 % of control | [9] 92 % of control | endpoint: mean survival time, dose: 400.0 mg/kg/injection, schedule: Q04DX003 (ip), vehicle: Klucel (hydroxypropylcellulose) (HPC) 90 % of control

CCOC(=O)C(Cl)c1ccc(OC)cc1 (stereo unspecified)
inactive: endpoint: mean survival time, dose: 100.0 mg/kg/injection, schedule: Q04DX003 (ip), vehicle: other 96 % of control | endpoint: mean survival time, dose: 200.0 mg/kg/injection, schedule: Q04DX003 (ip), vehicle: other 97 % of control | endpoint: mean survival time, dose: 400.0 mg/kg/injection, schedule: Q04DX003 (ip), vehicle: other 96 % of control

O=C1c2ccccc2-c2cc([N+](=O)[O-])c(Cl)cc21
inactive: endpoint: mean survival time, dose: 50.0 mg/kg/injection, schedule: Q04DX003 (ip), vehicle: Klucel (hydroxypropylcellulose) (HPC) 91 % of control | [8] 96 % of control | [9] 94 % of control

CC(=O)OCC1OC(n2ccc3c(N)ncnc32)C(O)C1OC(C)=O (stereo unspecified)
inactive: endpoint: mean survival time, dose: 5.0 mg/kg/injection, schedule: Q01DX001 (ip), vehicle: saline 112 % of control | endpoint: mean survival time, dose: 10.0 mg/kg/injection, schedule: Q01DX001 (ip), vehicle: saline 110 % of control | endpoint: mean survival time, dose: 20.0 mg/kg/injection, schedule: Q01DX001 (ip), vehicle: saline 108 % of control

O=c1[nH]cc(Cc2ccccc2)c(=S)[nH]1
inactive: endpoint: mean survival time, dose: 75.0 mg/kg/injection, schedule: Q01DX001 (ip), vehicle: saline with Tween-80 107 % of control | endpoint: mean survival time, dose: 150.0 mg/kg/injection, schedule: Q01DX001 (ip), vehicle: saline with Tween-80 102 % of control | endpoint: mean survival time, dose: 300.0 mg/kg/injection, schedule: Q01DX001 (ip), vehicle: saline with Tween-80 91 % of control

Cc1ccc(C2c3c(nc[nH]c3=O)OC2(C)C)cc1 (stereo unspecified)
inactive: [10] 114 % of control | [11] 106 % of control | [12] 111 % of control

O=C1C=CC(=O)N1c1ccc(Oc2ccc(Cl)cc2)cc1
inactive: [3] 103 % of control | [4] 107 % of control | [5] 88 % of control

COc1ccc(NC(=O)Nc2ccc(C)c([N+](=O)[O-])c2)c(OC)c1
inactive: [1] 97 % of control | [2] 103 % of control | [3] 88 % of control and 94 % of control

NC(=O)C1CCCCC1C(N)=O (stereo unspecified)
inactive: [4] 105 % of control | [5] 105 % of control | [6] 103 % of control

CC(C)(C)N1CCc2cc3c(cc2C1)OCO3
inactive: endpoint: mean survival time, dose: 50.0 mg/kg/injection, schedule: Q01DX001 (ip), vehicle: saline 100 % of control | endpoint: mean survival time, dose: 75.0 mg/kg/injection, schedule: Q01DX001 (ip), vehicle: saline 103 % of control | [7] 96 % of control and 97 % of control

CC(=O)c1cccc(C(=O)O)c1
inactive: endpoint: mean survival time, dose: 100.0 mg/kg/injection, schedule: Q01DX001 (ip), vehicle: saline with Tween-80 103 % of control | endpoint: mean survival time, dose: 200.0 mg/kg/injection, schedule: Q01DX001 (ip), vehicle: saline with Tween-80 101 % of control | endpoint: mean survival time, dose: 400.0 mg/kg/injection, schedule: Q01DX001 (ip), vehicle: saline with Tween-80 103 % of control

N=c1c2c(C(N)=O)cn(C3OC(CO)C(O)C3O)c2ncn1N (stereo unspecified)
inactive: endpoint: mean survival time, dose: 14.7 mg/kg/injection, schedule: Q01DX005 (ip), vehicle: water 110 % of control | endpoint: mean survival time, dose: 22.0 mg/kg/injection, schedule: Q01DX005 (ip), vehicle: water 118 % of control | endpoint: mean survival time, dose: 25.0 mg/kg/injection, schedule: Q01DX005 (ip), vehicle: water 117 % of control | endpoint: mean survival time, dose: 33.0 mg/kg/injection, schedule: Q01DX005 (ip), vehicle: water 121 % of control | endpoint: mean survival time, dose: 50.0 mg/kg/injection, schedule: Q01DX005 (ip), vehicle: water 120 % of control | endpoint: mean survival time, dose: 75.0 mg/kg/injection, schedule: Q01DX005 (ip), vehicle: water 106 % of control | endpoint: mean survival time, dose: 100.0 mg/kg/injection, schedule: Q01DX005 (ip), vehicle: water 98 % of control

O=C(COc1ccc(F)cc1F)OC(=O)COc1ccc(F)cc1F
inactive: [10] 92 % of control | [11] 89 % of control | [12] 89 % of control
